We go through four compounds from patent publication US20180116993A1, “MODULATORS OF FARNESOID X RECEPTOR AND METHODS FOR THE USE THEREOF” (XIAMEN UNIVERSITY, priority 2015, published 2018).

Like-named read-outs stand apart in the source and are kept apart here. Marks after values point to notes of the source that are not given here. Where only a bound is given, the exact number is not on record here.

The subject of test [1] is RA-resistant human colon cancer HCT116 cells. Briefly: MTT cell viability assay, HCT116. Format: cell-based. The following applies: 48 h, read-out: Cell viability as a percentage of the cells treated with DMSO, HCT116; for viability at 20 µM: HCT-116, 20 uM; for viability at 40 µM: HCT-116, 40 uM. From the text:
(§1) The MTT assay is a colorimetric assay for assessing cell metabolic activity. It is widely used in high-throughput screening of antitumor drugs due to its high sensitivity and economical features. In this example, MTT was used to detect the inhibitory effects of compounds on various cancer cell lines. Cancer cells including human colorectal adenocarcinoma HCT15 cells, RA-resistant human colon cancer HCT116 cells, human cervical carcinoma Hela cells, human hepatoma HepG2 cells and human breast cancer MCF7 cells were cultured in DMEM medium containing 10% fetal bovine serum. 20 uM or 40 uM of compounds were administered to treat cells, cell viability is detected by MTT assay and expressed as a percentage of the cells treated with DMSO (Table 4).
(Tetrazolium dyes change colour on reduction, which living cells bring about.)

Test [2] addresses T1, FXR ligand binding domain (LBD) (Homo sapiens, UniProt Q96RI1).
T1 construct: made in house
T1 sequence (Q96RI1 262-486 limits assumed): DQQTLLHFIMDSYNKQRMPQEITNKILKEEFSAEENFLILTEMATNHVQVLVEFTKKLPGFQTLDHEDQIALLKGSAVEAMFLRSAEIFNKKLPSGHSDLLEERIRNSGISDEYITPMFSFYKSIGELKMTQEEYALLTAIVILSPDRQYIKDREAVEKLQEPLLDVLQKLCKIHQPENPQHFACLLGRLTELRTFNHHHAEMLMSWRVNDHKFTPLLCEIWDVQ
As to the kind of experiment: AlphaScreen assay: FXR LBD recruitment of coregulator peptide motifs (SRC2-3, SRC1-2). Format: biochemical. The following applies: Table 2. As for the experimental part: In search of novel ligands for FXR, we used FXR ligand binding domain (LBD) as a bait to screen chemical libraries based on AlphaScreen biochemical assay, which determines the efficacy of small molecules in influencing binding affinity of FXR with coregulator peptides (see e.g., Jin et al., (2013) Nature communications 4, 1937).
The binding of the cofactor peptide motifs to FXR ligand binding domain (LBD) in response to ligands was determined by AlphaScreen assays using a hexahistidine detection kit from Perkins-Elmer. The FXR LBD protein was purified as described previously (see e.g., Jin et al., (2013) Nature communications 4, 1937). The experiments were conducted with approximately 20-40 nM receptor LBD and 20 nM biotinylated cofactor peptides in the presence of 5 μg/ml donor and acceptor beads in a buffer containing 50 mM MOPS, 50 mM NaF, 0.05 mM CHAPS, and 0.1 mg/ml bovine serum albumin, all adjusted to a pH of 7.4.

In test [3] the test system is human cervical carcinoma Hela cells. Briefly: MTT cell viability assay, Hela. Particulars: 48 h, read-out: Cell viability as a percentage of the cells treated with DMSO, Hela. Format: cell-based.
Excerpt: as §1

For test [4], the system named is db/db mice. Briefly: Serum/blood metabolic parameters in high-fat diet fed db/db mice. Format: in vivo, mouse. Particulars: 10 mg/kg, treat for 10 days, vehicle 527 ± 63. From the text:
KK-Ay mice (KK/Upj-Ay/J) are animal models with moderate obese and diabetes with insulin resistance. KK-Ay mice develop hyperglycemia, hyperinsulinemia, glucose intolerance and obesity as well as fat accumulation in liver by eight weeks of age. Pancreatic islets are hypertrophied and the β-cells are degranulated. db/db mice (BKS.Cg-Dockr+/+ Lepr^db/Jnju) are animal models of type II diabetes. They have the phenotype of insulin resistance. These model mice were used to detect the functions of our compounds on metabolic diseases.
8-10 weeks age mice were maintained as example 4, and fed with high-fat diet (Research Diets, D12492). Mice were i.p. injected with compounds once daily for 7, 10, 11 or 14 days as indicated in each table. After the last compounds injection, mice were fasted for 6 hours with free access to water, and then sacrificed. Part of each liver was fixed in 4% paraformaldehyde for H&E staining, and other liver tissues were stored in liquid nitrogen for enzyme activity measurement and gene expression analysis by RT-PCR. The serums were collected to measure metabolic parameters, including serum glucose, insulin, cholesterol, free fatty acid (FFA) and triglyceride levels. Serum glucose was analyzed using glucose oxidase method (Applygen, Beijing, China). The blood glucose in Table 11 was measured with Berenger blood glucose test strips (B/BRAUN, German) from blood by cutting mice tail after the 6th injection and following fast for 16 hours. Serum cholesterol and FFA were analyzed using Cholesterol Assay Kit and FFA Assay Kit (Bioassay Systems, USA; Nanjing Jiancheng Bioengineering Institute, China; FFA ELISA, R&D, USA), respectively. Serum triglyceride was analyzed using Triglyceride Assay Kit (Bioassay Systems, USA; WAKO Chemicals Inc., Japan; Applygen, Beijing, China). Liver triglyceride was analyzed using Tissue triglyceride assay kit (Applygen, Beijing, China). Serum insulin levels were measured by the Ultra Sensitive Mouse Insulin ELISA Kit (Crystal Chem. Inc., USA). RNA was isolated using Tissue RNA kit (Omega Bio-Tek, GA). The first strand cDNA were obtained by TAKARA reverse transcription kit. Real-time quantitative PCR were performed on a CFX96™ Real-Time PCR Detection System (Bio-Rad) using SYBR Premix Ex Taq™ (TAKARA). Relative mRNA expression levels were normalized to actin levels. […]

The subject of test [5] is human breast cancer MCF7 cells. Briefly: MTT cell viability assay, MCF-7. Format: cell-based. Particulars: 48 h, read-out: Cell viability as a percentage of the cells treated with DMSO, MCF-7.
Excerpt: as §1

In a further test the target is T2, full-length FXR (Homo sapiens, UniProt Q96RI1).
T2 construct: The cells were co-transfected with plasmids encoding full-length FXR and the cognate luciferase reporter EcRE-Luc; expressed in transfected cells; host or cells: COS-7
T2 sequence (Q96RI1 1-486): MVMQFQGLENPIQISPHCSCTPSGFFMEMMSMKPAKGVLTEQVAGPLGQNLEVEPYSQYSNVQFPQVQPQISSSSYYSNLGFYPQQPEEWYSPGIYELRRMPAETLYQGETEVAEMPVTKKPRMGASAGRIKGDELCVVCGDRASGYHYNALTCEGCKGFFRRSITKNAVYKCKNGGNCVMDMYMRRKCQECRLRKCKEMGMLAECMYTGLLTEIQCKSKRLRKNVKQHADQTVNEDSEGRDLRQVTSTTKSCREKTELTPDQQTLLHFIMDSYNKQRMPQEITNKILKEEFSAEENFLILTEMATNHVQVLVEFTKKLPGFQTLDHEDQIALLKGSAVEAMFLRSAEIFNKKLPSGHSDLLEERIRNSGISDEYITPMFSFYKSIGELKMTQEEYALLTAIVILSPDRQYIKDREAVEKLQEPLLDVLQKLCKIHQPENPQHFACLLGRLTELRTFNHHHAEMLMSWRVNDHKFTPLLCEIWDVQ
As to the kind of experiment: Cell-based FXR transactivation, EcRE luciferase reporter in COS-7 cells. The following applies: Table 2; for Cell-based FXR transactivation Fold changes by 5 μM compound: positive: induction, minus: repression; for EC50: EcRE luciferase reporter. As for the experimental part: COS-7 cells were cotransfected with plasmids encoding full length FXR.
For transient transfection assay, COS-7 cells were maintained in DMEM containing 10% fetal bovine serum and were transiently transfected using Lipofectamine 2000 (Invitrogen). Before 24 h of transfection, 24-well plates were plated. The cells were co-transfected with plasmids encoding full-length FXR and the cognate luciferase reporter EcRE-Luc. Ligands were added 5 hours after transfection. Cells were harvested 24 hours later for the luciferase assays according to the manufacturer's instructions (Dual-Luciferase® Reporter Assay System, Promega). Luciferase activities were normalized to renilla activity co-transfected as an internal control.
A general note: A reporter such as luciferase makes a cellular process visible.

For test [6], the system named is human hepatoma HepG2 cells. Briefly: MTT cell viability assay, HepG2. Format: cell-based. Particulars: 48 h, read-out: Cell viability as a percentage of the cells treated with DMSO, HepG2.
Excerpt: as §1

The test system of test [7] is human colorectal adenocarcinoma HCT15 cells. As to the kind of experiment: MTT cell viability assay, HCT15. Format: cell-based. Particulars: 48 h, read-out: Cell viability as a percentage of the cells treated with DMSO, HCT15; for viability at 20 µM: HCT-15, 20 uM; for viability at 40 µM: HCT-15, 40 uM.
Excerpt: as §1

For test [8], the system named is db/db mice. Briefly: Hepatic triglyceride, liver histology, serum ALT and ALP in high-fat diet fed db/db mice. Format: in vivo, mouse. How it is done: Liver tissues fixed in 4% paraformaldehyde in example 5 were performed for H&E staining by standard procedures. Liver tissues fixed in 4% paraformaldehyde were embedded in optimum cutting temperature compound (OCT), and cryosectioned. Frozen liver sections were stained with 0.3% oil red O according to standard procedures.
The triglyceride levels in liver tissues from mice treated with compounds were analyzed using Tissue triglyceride assay kit (Applygen, Beijing, China).
Alkaline Phosphatase (ALP) is a marker of cholestasis. Cholestasis can be suspected when there is an elevation of ALP enzymes. In fact, greater than 90% of patients with bile stasis will have an elevated alkaline phosphatase. […] The aminotransferase is used to evaluate the presence of hepatitis and may be elevated in cholestasis or with common bile duct obstruction. In this example, 8-10 week age db/db mice were fed with high-fat diet and treated with 10 mg/kg of compounds once daily for 10 days as in Example 5. The activities of serum ALP and ALT were analyzed using ALP kit and ALT kit, respectively (Nanjing Jiancheng Engineering Institute, China).

[9] abbreviates: SRC1-2 peptide, read-out: EC50 (μM) of FXR binding by AlphaScreen assay recruit SRC1-2.
[10] abbreviates: SRC2-3 peptide, read-out: EC50 (μM) of FXR binding by AlphaScreen assay recruit SRC2-3.

By viability is commonly meant the share of living cells, or the viability signal relative to a control. The term EC50 denotes the concentration that produces a half-maximal response. As for `O=C(OC1CCC2CCCCC2C1)c1ccc(F)cc1` (centres unmarked) [XD-33, decahydro-naphthalen-2-yl 4-fluorobenzoate], the viability at 20 µM was 97 ± 2% in test [1]; 97 ± 2% in [3]; 100 ± 2% in test [5]; 100 ± 2% in test [6]; 100 ± 2% in test [7]. The viability at 40 µM in test [1] is 95 ± 2%; in test [3] it was 98 ± 2%; in test [5], 95 ± 2%; in [6] it was 95 ± 2%; in test [7] it was 100 ± 2%. Also, the EC50 in [2] (setting [9]) was < 1 µM; in test [2] (setting [10]), < 1 µM; on full-length FXR it was 1000 to 10000 nM. Moreover, the “Serum Glucose (mg/dl)” value in the test on db/db mice [4] is listed as 400 ± 23^a mg/dl. At full-length FXR, the “Cell-based FXR transactivation Fold changes by 5 μM compound” value was 2.

Turning to `O=C(OC1CCCCCCC1)c1ccc([N+](=O)[O-])cc1` [XD-24, cyclooctyl 4-nitrobenzoate], in the test on db/db mice [4], the “Serum Glucose (mg/dl)” value is recorded as 307 ± 39^a mg/dl. Besides, on full-length FXR, the “Cell-based FXR transactivation Fold changes by 5 μM compound” value worked out at 1.2 and the EC50 was < 1000 nM.

With `COc1cc(C(=O)OC2CC3CCC2(C)C3(C)C)ccc1F` (centres unmarked) [XD-3, 1,7,7-trimethyl-bicyclo[2.2.1]-heptan-2-yl 4-fluoro-3-methoxybenzoate], the viability at 20 µM in test [1] is 80 ± 4%; in [3], 100 ± 1%; in test [5], 100 ± 4%; in test [6], 100 ± 3%; in test [7], 73 ± 5%. Further, the viability at 40 µM was determined as 41 ± 4% in test [1]; 66 ± 3% in test [3]; 40% in test [5]; 70 ± 3% in [6]; 40 ± 1% in [7]. Further, the EC50 fell in the range of 1 to 10 µM in [2] (setting [9]), 1 to 10 µM in test [2] (setting [10]) and 1000 to 10000 nM on full-length FXR. For the same compound, the “Cell-based FXR transactivation Fold changes by 5 μM compound” value at full-length FXR is recorded as 5. In the test on db/db mice [8] (10 mg/kg for 10 days, vehicle 148 ± 14), the “Hepatic triglyceride (mM/g)” value is listed as 80 ± 19 ^a mM/g. Moreover, the “Serum ALT (U/L)” value in the test with db/db mice [8] (10 mg/kg for 10 days, vehicle 377 ± 48, Table 15) is reported as 185 ± 29 ^a U/L.

Regarding `Cc1cc(C(=O)OC2CCC3CCCCC3C2)ccc1F` (centres unmarked) [XD-34, decahydro-naphthalen-2-yl 4-fluoro-3-methylbenzoate], the viability at 20 µM in test [1] was 98 ± 6%; in test [3], 98 ± 6%; in test [5] it was 100 ± 6%; in test [6], 100 ± 6%; in test [7] it was 100 ± 6%. Further, the viability at 40 µM in [1] came out at 94 ± 6%; in test [3], 97 ± 6%; in [5] it was 99 ± 6%; in test [6], 88 ± 6%; in [7], 100 ± 6%. Besides, the EC50 in test [2] (setting [9]) is < 1 µM; in [2] (setting [10]) it was < 1 µM; at full-length FXR, 1000 to 10000 nM. The “Cell-based FXR transactivation Fold changes by 5 μM compound” value at full-length FXR worked out at 2. In addition, the “Serum ALP (U/L)” value with db/db mice [8] (10 mg/kg once daily for 10 days, vehicle 129 ± 15) was 91 ± 18^a U/L. The “Serum ALT (U/L)” value in the test with db/db mice [8] (10 mg/kg once daily for 10 days, vehicle 377 ± 48, Table 17) is 73 ± 20^b U/L.
